Assay results taken from article PMC6201195, “The Xylulose 5-Phosphate/Phosphate Translocator Supports Triose Phosphate, but Not Phosphoenolpyruvate Transport Across the Inner Envelope Membrane of Plastids in Arabidopsis thaliana Mutant Plants” (Frontiers in Plant Science, 2018).
Each block holds one molecule with its values, some of them ahead of it.

Assays:
[1] = target: T1, XPT (xylulose 5-phosphate/phosphate translocator) (Arabidopsis thaliana, UniProt Q9LF61); assay: inhibition of homologous […]/[…] exchange in proteoliposomes with reconstituted yeast membranes; format: biochemical; settings: external pH 7.0; 0.14 mM 32Pi; hyperbolic fit; alternative transport substrate
T1 construct: full-length XPT cDNA, His-tag (pYES-DEST52), expressed in Saccharomyces cerevisiae InvSC; yeast membranes reconstituted into proteoliposomes, tag kept
T1 sequence (Q9LF61 1-417 limits assumed): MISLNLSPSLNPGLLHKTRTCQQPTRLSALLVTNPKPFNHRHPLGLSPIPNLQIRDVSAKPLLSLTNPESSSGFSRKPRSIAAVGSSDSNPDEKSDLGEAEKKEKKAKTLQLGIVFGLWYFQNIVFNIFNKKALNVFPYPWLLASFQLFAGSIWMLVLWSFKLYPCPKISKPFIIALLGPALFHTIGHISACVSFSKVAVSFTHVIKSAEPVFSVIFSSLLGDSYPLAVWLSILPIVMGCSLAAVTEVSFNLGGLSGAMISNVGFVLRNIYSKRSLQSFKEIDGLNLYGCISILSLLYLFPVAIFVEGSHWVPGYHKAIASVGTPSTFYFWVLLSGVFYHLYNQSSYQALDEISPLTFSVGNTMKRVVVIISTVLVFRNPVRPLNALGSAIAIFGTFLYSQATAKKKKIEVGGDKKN

[2] = substrate: O=P(O)(O)O; assay: cells, lysate or membranes; settings: external pH 7.0, internal pH 7.8; counter-exchange; labelled compound

- Ki(app) [1]: 3.76 ± 0.39 mM
Molecule: C=C(OP(=O)(O)O)C(=O)O [PEP]

B1: XPT (xylulose 5-phosphate/phosphate translocator) (Arabidopsis thaliana) (protein)
chain: T1 sequence (Q9LF61 1-417 limits assumed)
- Km [2]: 0.40 ± 0.07 mM
